Assay results as given in patent US12351570B2 (MERCK PATENT GMBH, priority 2018, dated 2025).

System: MDA-MB-231 cells
Experiment: Extracellular lactate production inhibition after 4 h, MDA-MB-231
Conditions: Homo sapiens, MDA-MB-231

| SMILES | IC50 [nM] |
| --- | --- |
| COc1cc(C(=O)O)ncc1C#Cc1ccccc1NS(=O)(=O)c1c(C)ccc2cccnc12 [Compound 164, 4-methoxy-5-{2-[2-(7-methylquinoline-8-sulfonamido)phenyl]ethynyl}pyridine-2-carboxylic acid] | 1 to 10 |
| O=C(O)c1ccc(C#Cc2ccccc2NS(=O)(=O)c2ccc(Br)c3ccccc23)cn1 [Compound 128, 5-{2-[2-(4-bromonaphthalene-1-sulfonamido)phenyl]ethynyl}pyridine-2-carboxylic acid] | 100 to 1000 |
| O=C(NO)c1ccc(C#Cc2ccccc2NS(=O)(=O)c2ccc3ccccc3c2)cc1 [Compound 16, N-hydroxy-4-{2-[2-(naphthalene-2-sulfonamido)phenyl]ethynyl}benzamide] | 1000 to 100000 |
| CC(C)Oc1ccc(S(=O)(=O)Nc2ccccc2C#Cc2cnc(C(=O)O)c3ccccc23)c2ncccc12 [Compound 447, 4-(2-{2-[5-(propan-2-yloxy)quinoline-8-sulfonamido]phenyl}ethynyl)iso-quinoline-1-carboxylic acid] | 100 to 1000 |
| COc1cc(C(=O)OCC(O)CO)ncc1C#Cc1ccccc1NS(=O)(=O)c1c(C)ccc2cccnc12 (centres unmarked) [Compound 408, 2,3-dihydroxypropyl 4-methoxy-5-{2-[2-(7-methylquinoline-8-sulfonamido)phenyl]ethynyl}pyridine-2-carboxylate] | 10 to 100 |
| Cc1ccc2cccnc2c1S(=O)(=O)Nc1ccc(Br)cc1C#Cc1ccc(C(=O)O)nc1 [Compound 340, 5-{2-[5-bromo-2-(7-methylquinoline-8-sulfonamido)phenyl]ethynyl}pyridine-2-carboxylic acid] | 1 to 10 |
| O=C(O)c1ccc(C#Cc2ccccc2S(=O)(=O)Nc2ccccc2)cn1 [Compound 439, 5-{2-[2-(phenylsulfamoyl)phenyl]ethynyl} pyridine-2-carboxylic acid] | 1000 to 100000 |
| CS(=O)(=Nc1ccccc1C#Cc1ccc(C(=O)O)nc1)c1ccccc1F (centres unmarked) [Compound 437, 5-[2-(2-{[(2-fluorophenyl)(methyl)oxo-λ6-sulfanylidene]amino}phenyl)ethynyl] pyridine-2-carboxylic acid] | 1000 to 100000 |
| COc1ccc(S(=O)(=O)Nc2ccccc2C#Cc2ccc(C(=O)O)cc2)cc1OC [Compound 263, 4-[2-(3,4-Dimethoxy-benzenesulfonyl-amino)-phenylethynyl]-benzoic acid] | 1000 to 100000 |
| COc1ccc(S(=O)(=O)Nc2ccccc2C#Cc2ccc(C(=O)O)cc2)cc1C [Compound 56, 4-{2-[2-(4-methoxy-3-methylbenzenesulfonamido)phenyl]-ethynyl}benzoic acid] | 100 to 1000 |
| COc1ccc(S(=O)(=O)Nc2ccccc2C#Cc2ccc(C(=O)O)nc2)c(OC)c1 [Compound 299, 5-{2-[2-(2,4-dimethoxybenzenesulfon-amido)phenyl]ethynyl}pyridine-2-carboxylic acid] | 1000 to 100000 |
| O=C(O)c1ccc(C#Cc2ccccc2NS(=O)(=O)N2CCC[C@H]3CCCC[C@@H]32)cn1 [Compound 162, 5-[2-(2-{[(4aR,8aS)-decahydroquinoline-1-sulfonyl]amino}phenyl)ethynyl]pyridine-2-carboxylic acid] | 10 to 100 |
| O=C(O)c1ccc(C#Cc2ccccc2NS(=O)(=O)c2cc3ccccc3s2)cc1 [Compound 276, 4-{2-[2-(1-benzothiophene-2-sulfonamido)phenyl]ethynyl}benzoic acid] | 1000 to 100000 |
| Cc1cc(C#Cc2ccccc2NS(=O)(=O)c2ccc3ccccc3c2)ccc1C(=O)O [Compound 10, 2-methyl-4-{2-[2-(naphthalene-2-sulfonamido)phenyl]ethynyl}benzoic acid] | 100 to 1000 |
| O=C(O)c1ccc(C#Cc2ccccc2NS(=O)(=O)c2c(Cl)cc(Cl)c3cccnc23)cn1 [Compound 306, 5-{2-[2-(5,7-dichloroquinoline-8-sulfonamido)phenyl]ethynyl}pyridine-2-carboxylic acid] | 10 to 100 |
| COC(=O)c1cc(Cl)c(C#Cc2ccccc2NS(=O)(=O)c2ccc(OC)c3cccnc23)cn1 [Compound 157, methyl 4-chloro-5-{2-[2-(5-methoxyquinoline-8-sulfonamido)phenyl]ethynyl}pyridine-2-carboxylate] | 10 to 100 |
| CS(=O)(=Nc1ccccc1C#Cc1ccc(C(=O)O)nc1)c1cccc2cccnc12 (centres unmarked) [Compound 429, 5-[2-(2-{[methyl(oxo)(quinolin-8-yl)-λ6-sulfanylidene]amino}phenyl)ethynyl] pyridine-2-carboxylic acid] | 1000 to 100000 |
| O=C(O)c1ccc(C#Cc2ccccc2NS(=O)(=O)c2cccc3c(N4CCOCC4)ccnc23)cn1 [Compound 422, 5-[2-(4-Morpholin-4-yl-quinoline-8-sulfonylamino)-phenylethynyl]-pyridine-2-carboxylic acid] | 1000 to 100000 |
| COc1ccc(S(=O)(=O)Nc2ccccc2C#Cc2ccc(C(=O)O)cc2)c(C)c1 [Compound 47, 4-{2-[2-(4-methoxy-2-methylbenzenesulfonamido)phenyl]ethynyl} benzoic acid] | 100 to 1000 |

| SMILES | IC50 [nM] |
| --- | --- |
| COc1ccc(S(=O)(=O)Nc2ccccc2C#Cc2cnc(C(=O)O)cc2Cl)c2ncccc12 [Compound 159, 4-chloro-5-{2-[2-(5-methoxyquinoline-8-sulfonamido)phenyl]ethynyl}pyridine-2-carboxylic acid] | 10 to 100 |
| COc1ccc(S(=O)(=O)Nc2cc(Br)ccc2C#Cc2ccc(C(=O)O)nc2)c2ncccc12 [Compound 182, 5-{2-[4-bromo-2-(5-methoxyquinoline-8-sulfonamido)phenyl]ethynyl}pyridine-2-carboxylic acid] | 100 to 1000 |
| O=C(O)c1ccc(C#Cc2cc(Cl)ccc2NS(=O)(=O)c2ccc(Cl)cc2)cc1 [Compound 269, 4-[5-Chloro-2-(4-chloro-benzenesulfonylamino)-phenylethynyl]-benzoic acid, reference compound] | 1000 to 100000 |
| Cc1ccc2cccc(S(=O)(=O)Nc3ccccc3C#Cc3ccc(C(=O)O)nc3)c2n1 [Compound 267, 5-[2-(2-Methyl-quinoline-8-sulfonylamino)-phenylethynyl]-pyridine-2-carboxylic acid] | 100 to 1000 |
| Cc1ccccc1-c1cccc(S(=O)(=O)Nc2ccccc2C#Cc2ccc(C(=O)O)nc2)c1 [Compound 94, 5-[2-(2-{2′-methyl-[1,1′-biphenyl]-3-sulfonamido}phenyl)ethynyl]pyridine-2-carboxylic acid] | 1000 to 100000 |
| NCCOCCOCCOc1ccc(C#Cc2ccc(C(=O)O)nc2)c(NS(=O)(=O)c2cccc3cccnc23)c1 [Compound 332, 5-[4-{2-[2-(2-Amino-ethoxy)-ethoxy]-ethoxy}-2-(quinoline-8-sulfonylamino)-phenylethynyl]-pyridine-2-carboxylic acid] | 1000 to 100000 |
| Cc1ccc2cccnc2c1S(=O)(=O)Nc1ccccc1C#Cc1cnc(C(=O)O)c(N(C)C)c1 [Compound 163, 3-(dimethylamino)-5-{2-[2-(7-methylquinoline-8-sulfonamido)-phenyl]ethynyl}pyridine-2-carboxylic acid] | 100 to 1000 |
| O=C(O)c1ccc(C#Cc2cc(Cl)ccc2NS(=O)(=O)c2cccc3cccnc23)cn1 [Compound 368, 5-{2-[5-chloro-2-(quinoline-8-sulfonamido)phenyl]ethynyl}pyridine-2-carboxylic acid] | 10 to 100 |
| Cc1nc(C(=O)O)ccc1C#Cc1ccccc1NS(=O)(=O)c1cccc2cccnc12 [Compound 60, 6-methyl-5-{2-[2-(quinoline-8-sulfonamido)phenyl]ethynyl}pyridine-2-carboxylic acid] | 1000 to 100000 |
| COC(=O)c1cc(C)c(C#Cc2ccccc2NS(=O)(=O)c2c(C)ccc3cccnc23)cn1 [Compound 137, methyl 4-methyl-5-{2-[2-(7-methylquinoline-8-sulfonamido)phenyl]ethynyl}pyridine-2-carboxylate] | 100 to 1000 |
| COc1ccc(S(=O)(=O)Nc2ccccc2C#Cc2cnc(C(=O)O)c3ccccc23)c(C)c1C [Compound 395, 4-[2-(4-Methoxy-2,3-dimethyl-benzenesulfonylamino)-phenylethynyl]-isoquinoline-1-carboxylic acid] | 100 to 1000 |
| Cc1cc(C)c2cccnc2c1S(=O)(=O)Nc1ccccc1C#Cc1ccc(C(=O)O)nc1 [Compound 381, 5-{2-[2-(5,7-dimethylquinoline-8-sulfonamido)phenyl]ethynyl}pyridine-2-carboxylic acid] | 10 to 100 |
| COc1ccc(S(=O)(=O)Nc2cc(C(=O)NCCOCc3ccccc3)ccc2C#Cc2ccc(C(=O)O)nc2)c2ncccc12 [Compound 184, 5-[2-(4-{[2-(benzyloxy)ethyl]carbamoyl}-2-(5-methoxyquinoline-8-sulfonamido)-phenyl)ethynyl]pyridine-2-carboxylic acid] | 1000 to 100000 |
| Cc1cc(C(=O)O)ncc1C#Cc1ccccc1NS(=O)(=O)c1c(C)ccc2cccnc12 [Compound 107, 4-methyl-5-{2-[2-(7-methylquinoline-8-sulfonamido)phenyl]ethynyl}pyridine-2-carboxylic acid] | 10 to 100 |
| COc1ccc(S(=O)(=O)Nc2ccccc2C#Cc2ccc(C(=O)O)c(OC)c2)c(C)c1 [Compound 67, 2-methoxy-4-{2-[2-(4-methoxy-2-methylbenzenesulfonamido)phenyl]-ethynyl}benzoic acid] | 100 to 1000 |
| O=C(O)c1ccc(C#Cc2ccc(F)cc2NS(=O)(=O)c2cccc3ccccc23)cn1 [Compound 285, 5-{2-[4-fluoro-2-(naphthalene-1-sulfonamido)phenyl]ethynyl}pyridine-2-carboxylic acid] | 100 to 1000 |
| COc1ccc(S(=O)(=O)Nc2ccccc2C#Cc2ccc(C(=O)O)nc2)c(C)c1C [Compound 42, 5-{2-[2-(4-methoxy-2,3-dimethylbenzenesulfonamido)phenyl]-ethynyl}pyridine-2-carboxylic acid] | 100 to 1000 |
| COc1cc(C#Cc2ccccc2NS(=O)(=O)c2ccc(OC)c3cccnc23)ccc1C(=O)O [Compound 230, 2-methoxy-4-{2-[2-(5-methoxyquinoline-8-sulfonamido)phenyl]ethynyl}benzoic acid] | 100 to 1000 |
| Cc1ccc2cccnc2c1S(=O)(=O)Nc1ccccc1C#Cc1ccc(C(=O)O)nc1C [Compound 100, 6-methyl-5-{2-[2-(7-methylquinoline-8-sulfonamido)phenyl]ethynyl}pyridine-2-carboxylic acid] | 1000 to 100000 |
